In article PMC11091117, “A fluorescently-tagged tick kinin neuropeptide triggers peristalsis and labels tick midgut muscles” (Scientific Reports, 2024):
Entries after “also recorded” stand apart in the source; their conditions may differ.

Test system: tick midgut
Test: Tick midgut contraction assay with EthoVision video analysis
Set-up: species or system Rhipicephalus sanguineus
From the text: Individual female ticks were immobilized on a Petri dish filled with wax by submerging their legs in melted wax heated with a soldering pencil (Electronic Control Soldering Station EC 1000, Weller, Apex, North Carolina, USA). Females were dissected under physiological saline following the protocol described by Tidwell et al.[51]. The tick was cut along the edge of the scutum/alloscutum using a stainless steel #12 scalpel blade (Integra Miltex, York, PA, USA), after which the scutum was removed with a pair of fine forceps. To expose the midgut for removal, the tracheae, Malpighian tubules, ovaries, rectal sac, and synganglion were removed with fine forceps in that order. The midgut was then carefully removed and placed into 200 µL of fresh tick saline (See Reagents and Peptides) on a single gasketed incubation chamber (500 µL, Size 22 × 40 mm, Electron Microscopy Sciences, Hatfield, PA). The midguts were then rinsed three times with the physiological tick saline for subsequent fluorescent labeling or activity experiments.
Midguts were dissected from immobilized female ticks under tick saline, as described under the Midgut Dissection. Ten different midguts were used for each of the two treatments, and ticks were of the same age and batch and had been maintained under the same conditions. Dissected midguts were placed individually into 200 µL of tick saline for 10 min at 28 °C on a gasketed glass coverslip (500 µL, Size 22 × 40 mm) serving as incubation chamber. […] After the final wash and removal of saline, 200 µL of saline were added, and a microscopy coverslip (24 × 60 mm, VWR, Radnor, PA) was placed over the gasketed portion of the incubation chamber, which height (0.5 mm) fits to prevent the midgut from floating, but still allows midgut peristalsis. The midguts were observed and filmed under a dissecting microscope (Olympus SZ61, Japan) equipped with an Infinity 5 camera (Teledyne Lumenera, Ottawa, ON, Canada). All videos were recorded for 1 min with the INFINITY ANALYZE 7 software (Teledyne Lumenera) at 30 frames/second with a 2464 × 2056 resolution. The field of view in all videos recorded represents 4 × 3.5 mm to capture the entire tick midguts under saline. All video files in Windows Media Video (.wmv) format obtained from the Infinity Analyze 7 software were converted to the MP4 format using CloudConvert (cloudconvert.com, Lunaweb, Munich, Germany) for analyses with the EthoVision XT 17 software (Noldus Information Technology, Wageningen, The Netherlands).
We used the EthoVision 17 XT software to quantify the “activity” (pixel change) of the midguts from the videos recorded. This software defines activity as the percentage of pixels that have changed in the entire defined arena between the current image and previous image. The videos are recorded in 2464 × 2056 resolution and the arena is set to be the entire video screen. Video files were uploaded into the program and analyzed starting from time zero to the end of the 60 s video. Detection settings for activity included the activity threshold which was set to 5 to achieve zero detection when the midgut was immobile. Although the video captured 30 frames (images) per s, for the video analysis we chose a “sample rate” of 7 samples /s, with sample rate being the number of images from the video the EthoVision program analyzes per second. To calculate activity, each pixel of the video image was compared from one image to the next, and the proportion of pixel changes was calculated by dividing the number of pixels changed from one image to the next by the total number of pixels in the image. Care was given for the midgut to occupy most of the arena, as the activity analyses will reflect the midgut movement as a proportion of the total arena. Midgut activity is observed as pixel changes, which are represented by the red-colored pixels in the S4 video. The mean pixel change per midgut was then determined by averaging the pixel changes from all samples within the recording period. […]

TMR-C-GTGEDQAFSPWGamide [TMR-RK8]
midgut contractions, S4 Video (in words) (1 µM TMR-RK8, after 1 min of exposure, 4X speed): Rapid contractions were observed shortly after treatment | midgut peristalsis/contractions (in words) (10 µM, 1 min, 28 °C, midguts of unfed females ex vivo, video recorded 1 min): inducing significant midgut peristalsis; also recorded: induced peristalsis | mean activity (mean pixel change, percentage of pixels changed in arena) (10 µM, 1 min, rinsed twice, 28 °C, tick saline, 60 s video, 7 samples/s, EthoVision XT 17, activity threshold 5, N = 10 midguts): 1% | mean activity of midguts compared to TMR-Scrambled (in words) (10 µM, N = 10 vs N = 10, for the duration of the videos): higher mean activity | pixels changing from each sample to the next (of 5,065,984 pixels per sample, 10 µM, 1 min, 28 °C, N = 10): about 50,660 pixels | movement of midguts relative to TMR-Scrambled treated midguts (ratio of mean activity, 10 µM, N = 10 per treatment): 10 factor
